| Structure (SMILES) | melting point |
| --- | --- |
| O=C1OCCC1Oc1ccc(C(F)(F)F)cc1 (stereo not given) | 84 to 86 °C |
| CCc1nn2ccccc2c1N(CCF)C(=O)COC | 66.9 to 70.6 °C |
| CC(Cc1c[nH]c2ccccc12)(NC(=O)OC1C2CC3CC(C2)CC1C3)C(=O)NCCc1cccc(NC(=O)CCC(=O)O)c1 (stereo not given) | 78 to 82 °C |
| O=C(CC1CCCCC1)Nc1c(Cl)ccc2nc(CCCCc3nnn[nH]3)ccc12 | 192 to 195 °C |
| CN1CCN(C2CC3C4CCC5CC6OC6CC5(C)C4CCC3(C)C2=O)CC1 (stereo not given) | 132 to 134 °C |
| O=C(c1cc(=O)c2cc(O)ccc2[nH]1)N1CCC(Cc2ccccc2)CC1 | 127 °C |
| OCC1OC(n2cnc3c(NC4C=CCC4O)ncnc32)C(O)C1O (stereo not given) | 212 to 214 °C |
| COC(C)c1nsc2ccc(-n3c(=O)cc(C(F)(F)F)n(C)c3=O)cc12 (stereo not given) | 133 to 135 °C |
| Cc1nc2c3c(c(C(=O)N(C)C)cc2n1C)CCC1(Cc2ccccc2C1)N3 | 178 to 179 °C |
| CN(CCc1ccccc1)S(=O)(=O)CC(=O)NO | 149 to 151 °C |
| CC(C)(C)OC1CCC2(C)C(=CCC3C4CCC(=O)C4(C)CCC32)C1 (stereo not given) | 185 to 187 °C |
| Cc1c2c(c(C(O)c3ccc(C(C)C)cc3)c(C)c1NC(=O)OC(C)(C)C)OC(C)C2 (stereo not given) | 141 to 142 °C |
| CC(=O)c1cc(C(C)=O)c(O)c(C(C)C)c1O | 132 to 133 °C |
| CCC12CCC3C4=C(CC(OC)=CC4)C(C)CC3C1CCC2O (stereo not given) | 176 to 182 °C |
| N#CCC1CN(Cc2ccccc2)CCO1 (stereo not given) | 62 °C |
| CCCC=NNc1cc2c(nn1)CCN(C(=O)OCC)C2 | 142 to 146 °C |
| CCC(CC)c1ccc(Cl)c2nc(Nc3cc(Cl)cc(Cl)c3)n(CCCCO)c12 | 208 to 210 °C |
| COc1ccccc1SCCCCCCCC(=O)O | 62 to 63 °C |
| Oc1cc2c(cc1C13CC4CC(CC(C4)C1)C3)CCCC2 | 169 to 170 °C |
| Nc1nc(-c2ccco2)c(C(=O)C2CCC(=O)CC2)s1 | 232 to 235 °C |
| CC(C)(Cc1ccccc1)C(NC(=O)c1ccncc1)Nc1c(Nc2cccnc2)c(=O)c1=O (stereo not given) | 251 to 254 °C |
| O=C(C(=O)N1CCCCC1)C(Cl)Cl | < 50 °C |
| CCCCCCCCCCCCOC(=O)c1cc(N=NN(CCO)c2ccc(C)cc2)ccc1[N+](=O)[O-] | 64 to 66 °C |

The next lines start with the values.

| melting point | Structure (SMILES) |
| --- | --- |
| 50 °C | CC#CCOc1ccc(S(=O)(=O)C(C(=O)NO)c2cccc(Cl)c2)cc1 (stereo not given) |
| 98 to 100 °C | CC1CCC(Oc2cc(F)cc(C(=O)Nc3ccc(OCCN4CCOCC4)c4ccccc34)c2)CC1 (stereo not given) |
| 275 °C | O=C1CN2Cc3cc(C(=O)c4cccnc4)ccc3N=C2N1 |
| 251 to 254 °C | COc1ccc(-c2nc(N)sc2-c2ccnc(N)c2)cc1 |
| 207 to 209 °C | O=C(c1ccc(-n2ccnc2)cc1)N1CCN(S(=O)(=O)c2ccc3cc(Br)ccc3c2)CC1 |
| > 300 °C | Cc1cccc2cc3c(=O)[nH]cc(C(=O)O)c3nc12 |
| 221 to 223 °C | O=c1nc(-c2ccc(N3CCCC3)nc2)sc2ccccc12 |
| 96 to 99 °C | COc1ccc2cc(C(=O)Cl)oc2c1 |
| 157 to 158 °C | CC1CCC(c2ccc(Cl)c(C(F)(F)F)c2)=NN1S(=O)(=O)c1ccc(I)cc1 (stereo not given) |
| 170 to 173 °C | NC(=O)c1ccc(CCN2CCN(Cc3ccccc3Cl)CC2)cc1 |
| 209 to 211 °C | CNC(=O)c1cc2nc(C(F)(F)F)ccc2c(OC)c1NC(=O)c1cc(C(F)(F)F)nn1-c1ncccc1Cl |
| 99 to 101 °C | Oc1cnccc1CCCOc1cccnc1Oc1cc(Cl)cc(Cl)c1 |
| 243 °C | COc1ccc(C2CC(c3ccccc3OC)=NN2c2ccc(C(=O)O)cc2)cc1 (stereo not given) |
| > 305 °C | COc1cc(Nc2c(C#N)cnc3c2sc2ccc([N+](=O)[O-])cc23)c(C)cc1Cl |
| 260 to 261 °C | Nc1c(-c2ccc(Cl)cc2)nc2c(Cl)cc(Cl)cc2c1C(=O)O |
| 148 to 149 °C | COc1ccc2c(-c3ccc(Cl)cc3)noc2c1 |
| 200 to 201 °C | COc1ccc(C(=O)Nc2ccccc2)cc1Oc1ccccc1 |

— a melting point compilation (Tetko et al.; mined from patent text by program, amines drawn as free bases though some values may be those of a salt)
